Assay: High Throughput Experimentation (HTE) solubility screen, solvent/heptane mixtures for crystallization
Assay type: physicochemical
Conditions: 20° C., 2-MeTHF
Experimental: A High Throughput Experimentation (HTE) solubility screen was conducted to determine the solvent/anti-solvent combination for the crystallization and align the reaction solvent with the crystallization solvent. Solubility studies of t-Butyl Core at 20° C. were conducted for various percentages of heptane. […] The solubility screen pointed to MTBE/heptane being one example of a useful solvent mixture for crystallization because of its gradual solubility curve.

CC(C)(C)OC(=O)CC[C@H](NC(=O)CC[C@H](NC(=O)OCc1ccccc1)C(=O)OC(C)(C)C)C(=O)OC(C)(C)C [t-Butyl Core]
solubility of t-Butyl Core (MIBK or IPAc with 80% heptane): 50 mg/mL
solubility of t-Butyl Core (MIBK or IPAc with 90% heptane): 10 mg/mL

— patent publication US20250289842A1, “Processes for Making NAG-25, a Carbohydrate Targeting Moiety, and its Intermediates” (AMGEN INC., priority 2022, published 2025)
